Experimental data: patent US9695155B2, “Herbicidal substituted pyrimidinyloxy benzene compounds” (E. I. DU PONT DE NEMOURS AND COMPANY, priority 2013, dated 2017)

Assays:
barnyardgrass [1] = assay: Test A postemergence; format: in vivo, Echinochloa crus-galli
In short: (§1)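 Pre- and postemergence greenhouse screen. Soil: loam + sand. Spray carrier: solvent mixture, non-phytotoxic, with surfactant. Post timing at 1–2 leaves, height 2–10 cm. Readout: visual injury on a 0–100 scale roughly 10 days after application, untreated plants as reference.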

giant foxtail [2] = assay: Test A preemergence; format: in vivo, Setaria faberii; conditions: for Foxtail, Giant plant response rating: 500 g ai/ha
In short: as §1

sedge, umbrella = assay: Test B flooded paddy test; format: in vivo, Cyperus difformis; conditions: Flood, 250 g ai/ha; 0 to 100 scale where 0 is no effect and 100 is complete control
In short: (§2)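 Greenhouse flooded-pot test: compounds dosed into 3 cm standing water over 2-leaf plants, flood held constant. Rated visually after 13–15 days on 0–100 (complete control = 100); a dash marks no test result.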

large (Lg) crabgrass [3] = assay: Test A preemergence; format: in vivo, Digitaria sanguinalis; conditions: for Crabgrass, Large plant response rating: 500 g ai/ha
In short: as §1

Heteranthera limosa = assay: Test B flooded paddy test; format: in vivo; conditions: Flood, 250 g ai/ha; 0 to 100 scale where 0 is no effect and 100 is complete control
In short: as §2

velvetleaf [4] = assay: Test A postemergence; format: in vivo, Abutilon theophrasti
In short: as §1

morningglory [5] = assay: Test A postemergence; format: in vivo, Ipomoea spp.
In short: as §1

velvetleaf [6] = assay: Test A preemergence; format: in vivo, Abutilon theophrasti; conditions: for Velvetleaf plant response rating: 500 g ai/ha
In short: as §1

pigweed [7] = assay: Test A preemergence; format: in vivo, Amaranthus retroflexus; conditions: for Pigweed plant response rating: 500 g ai/ha
In short: as §1

corn [8] = assay: Test A postemergence; format: in vivo, Zea mays
In short: as §1

barnyardgrass [9] = assay: Test B flooded paddy test; format: in vivo, Echinochloa crus-galli; conditions: Flood, 250 g ai/ha; 0 to 100 scale where 0 is no effect and 100 is complete control
In short: as §2

wheat [10] = assay: Test A postemergence; format: in vivo, Triticum aestivum
In short: as §1

pigweed [11] = assay: Test A postemergence; format: in vivo, Amaranthus retroflexus
In short: as §1

wheat [12] = assay: Test A preemergence; format: in vivo, Triticum aestivum; conditions: for Wheat plant response rating: 500 g ai/ha
In short: as §1

rice = assay: Test B flooded paddy test; format: in vivo, Oryza sativa; conditions: Flood, 250 g ai/ha; 0 to 100 scale where 0 is no effect and 100 is complete control
In short: as §2

large (Lg) crabgrass [13] = assay: Test A postemergence; format: in vivo, Digitaria sanguinalis
In short: as §1

barnyardgrass [14] = assay: Test A preemergence; format: in vivo, Echinochloa crus-galli; conditions: for Barnyardgrass plant response rating: 500 g ai/ha
In short: as §1

morningglory [15] = assay: Test A preemergence; format: in vivo, Ipomoea spp.; conditions: for Morningglory plant response rating: 500 g ai/ha
In short: as §1

giant foxtail [16] = assay: Test A postemergence; format: in vivo, Setaria faberii
In short: as §1

corn [17] = assay: Test A preemergence; format: in vivo, Zea mays; conditions: for Corn plant response rating: 500 g ai/ha
In short: as §1

[18] = 125 g ai/ha, 0 to 100 scale where 0 is no effect and 100 is complete control
[19] = 500 g ai/ha, 0 to 100 scale, 0 no effect, 100 complete control
[20] = 0 to 100 scale, 0 no effect, 100 complete control, approx. 10 days
[21] = 125 g ai/ha, 0 to 100 scale, 0 no effect, 100 complete control
[22] = 500 g ai/ha, 0 to 100 scale where 0 is no effect and 100 is complete control
[23] = 0 to 100 scale where 0 is no effect and 100 is complete control

C=C(C)c1cnn(-c2ccccc2Oc2ncc(Cl)cn2)c1 [Compound 32]
Plant response rating, Barnyardgrass (barnyardgrass [1]; [18]): 0
Plant response rating, Barnyardgrass (barnyardgrass [1]; [19]): 20
Plant response rating, Foxtail, Giant (giant foxtail [2]; [18]): 0
Foxtail, Giant plant response rating (giant foxtail [2]; [20]): 70
Plant response rating, Sedge, Umbrella (sedge, umbrella): 0
Plant response rating, Crabgrass, Large (large (Lg) crabgrass [3]; [18]): 0
Crabgrass, Large plant response rating (large (Lg) crabgrass [3]; [20]): 60
Plant response rating, Ducksalad (Heteranthera limosa): 0
Plant response rating, Velvetleaf (velvetleaf [4]; [18]): 80
Plant response rating, Velvetleaf (velvetleaf [4]; [19]): 100
Plant response rating, Morningglory (morningglory [5]; [18]): 0
Plant response rating, Morningglory (morningglory [5]; [19]): 0
Plant response rating, Velvetleaf (velvetleaf [6]; [18]): 10
Velvetleaf plant response rating (velvetleaf [6]; [20]): 70
Plant response rating, Pigweed (pigweed [7]; [18]): 0
Pigweed plant response rating (pigweed [7]; [20]): 40
Plant response rating, Corn (corn [8]; [18]): 0
Plant response rating, Corn (corn [8]; [19]): 20
Plant response rating, Barnyardgrass (barnyardgrass [9]): 0
Plant response rating, Wheat (wheat [10]; [18]): 0
Plant response rating, Wheat (wheat [10]; [19]): 0
Plant response rating, Pigweed (pigweed [11]; [18]): 50
Plant response rating, Pigweed (pigweed [11]; [19]): 70
Plant response rating, Wheat (wheat [12]; [18]): 0
Wheat plant response rating (wheat [12]; [20]): 0
Plant response rating, Rice (rice): 15
Plant response rating, Crabgrass, Large (large (Lg) crabgrass [13]; [18]): 50
Plant response rating, Crabgrass, Large (large (Lg) crabgrass [13]; [19]): 50
Plant response rating, Barnyardgrass (barnyardgrass [14]; [18]): 0
Barnyardgrass plant response rating (barnyardgrass [14]; [20]): 60
Plant response rating, Morningglory (morningglory [15]; [18]): 0
Morningglory plant response rating (morningglory [15]; [20]): 0
Plant response rating, Foxtail, Giant (giant foxtail [16]; [18]): 0
Plant response rating, Foxtail, Giant (giant foxtail [16]; [19]): 30
Plant response rating, Corn (corn [17]; [18]): 0
Corn plant response rating (corn [17]; [20]): 0

Clc1cnc(Oc2cccc(-c3cnoc3)c2-n2cc(Br)cn2)nc1 [Compound 291]
Plant response rating, Barnyardgrass (barnyardgrass [1]; [21]): 0
Plant response rating, Barnyardgrass (barnyardgrass [1]; [22]): 40
Foxtail, Giant plant response rating (0 to 100 scale) (giant foxtail [2]; 125 g ai/ha): 20
Foxtail, Giant plant response rating (giant foxtail [2]; [23]): 80
Plant response rating, Sedge, Umbrella (sedge, umbrella): 0
Crabgrass, Large plant response rating (0 to 100 scale) (large (Lg) crabgrass [3]; 125 g ai/ha): 50
Crabgrass, Large plant response rating (large (Lg) crabgrass [3]; [23]): 90
Plant response rating, Ducksalad (Heteranthera limosa): 0
Plant response rating, Velvetleaf (velvetleaf [4]; [21]): 50
Plant response rating, Velvetleaf (velvetleaf [4]; [22]): 60
Plant response rating, Morningglory (morningglory [5]; [21]): 30
Plant response rating, Morningglory (morningglory [5]; [22]): 40
Velvetleaf plant response rating (0 to 100 scale) (velvetleaf [6]; 125 g ai/ha): 40
Velvetleaf plant response rating (velvetleaf [6]; [23]): 60
Pigweed plant response rating (0 to 100 scale) (pigweed [7]; 125 g ai/ha): 60
Pigweed plant response rating (pigweed [7]; [23]): 90
Plant response rating, Corn (corn [8]; [21]): 0
Plant response rating, Corn (corn [8]; [22]): 10
Plant response rating, Barnyardgrass (barnyardgrass [9]): 0
Plant response rating, Wheat (wheat [10]; [21]): 0
Plant response rating, Wheat (wheat [10]; [22]): 0
Plant response rating, Pigweed (pigweed [11]; [21]): 30
Plant response rating, Pigweed (pigweed [11]; [22]): 70
Wheat plant response rating (0 to 100 scale) (wheat [12]; 125 g ai/ha): 0
Wheat plant response rating (wheat [12]; [23]): 0
Plant response rating, Rice (rice): 0
Plant response rating, Crabgrass, Large (large (Lg) crabgrass [13]; [21]): 10
Plant response rating, Crabgrass, Large (large (Lg) crabgrass [13]; [22]): 60
Barnyardgrass plant response rating (0 to 100 scale, 0 is no effect, 100 is complete control) (barnyardgrass [14]; 125 g ai/ha): 0
Barnyardgrass plant response rating (barnyardgrass [14]; [23]): 50
Morningglory plant response rating (0 to 100 scale) (morningglory [15]; 125 g ai/ha): 0
Morningglory plant response rating (morningglory [15]; [23]): 0
Plant response rating, Foxtail, Giant (giant foxtail [16]; [21]): 0
Plant response rating, Foxtail, Giant (giant foxtail [16]; [22]): 50
Corn plant response rating (0 to 100 scale) (corn [17]; 125 g ai/ha): 0
Corn plant response rating (corn [17]; [23]): 0
